This assay has as its target T1, human IL-23R (Homo sapiens, UniProt Q5VWK5).
T1 sequence (Q5VWK5 22-629): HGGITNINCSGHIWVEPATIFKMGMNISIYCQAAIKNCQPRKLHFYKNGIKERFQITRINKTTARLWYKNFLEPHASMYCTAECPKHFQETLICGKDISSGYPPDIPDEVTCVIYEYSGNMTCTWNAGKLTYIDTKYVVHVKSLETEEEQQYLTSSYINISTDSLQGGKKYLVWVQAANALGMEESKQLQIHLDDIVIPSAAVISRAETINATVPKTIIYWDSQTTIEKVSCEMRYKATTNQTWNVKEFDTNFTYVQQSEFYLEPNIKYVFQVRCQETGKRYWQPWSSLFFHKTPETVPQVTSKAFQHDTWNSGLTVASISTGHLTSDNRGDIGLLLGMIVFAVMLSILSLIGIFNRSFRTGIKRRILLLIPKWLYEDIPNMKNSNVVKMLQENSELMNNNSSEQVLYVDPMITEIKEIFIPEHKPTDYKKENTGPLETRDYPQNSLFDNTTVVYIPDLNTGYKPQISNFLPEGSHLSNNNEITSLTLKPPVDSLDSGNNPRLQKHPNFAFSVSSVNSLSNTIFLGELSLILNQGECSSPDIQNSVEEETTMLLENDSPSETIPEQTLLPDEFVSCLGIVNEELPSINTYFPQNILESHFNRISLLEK
In words: biochemical. Conditions: for Emax: read-out: % displacement (hIL-23R NIuc). An outline of the steps: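 Membranes from HEK293 cells stably expressing Nluc-tagged human IL-23R were incubated 2 h at room temperature with test compound and a fluorophore-labelled tracer. After substrate addition, loss of BRET (TAMRA over luciferase emission) reported tracer displacement. A 4PL fit gave IC50 values.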

Where a SMILES comes first, the peptide text is derived from it. Bridges are numbered along the chain shown (N, C = ends). [ ]: non-standard residue; d: D form. Trp(1-Me) = Cn1cc(C[C@H](N)C(=O)O)c2ccccc21; β3hW = N[C@H](CC(=O)O)Cc1c[nH]c2ccccc12; 2Nal = N[C@@H](Cc1ccc2ccccc2c1)C(=O)O; AEF = NCCOc1ccc(C[C@H](N)C(=O)O)cc1; 3Pal = N[C@@H](Cc1cccnc1)C(=O)O; αMeL = CC(C)C[C@](C)(N)C(=O)O; β3hK = NCCCC[C@H](N)CC(=O)O; Dab = NCC[C@H](N)C(=O)O; βAla = NCCC(=O)O

The IC50 is the concentration at which inhibition is half-maximal. Read a low IC50 as greater potency in that assay. As for `CC(C)[C@@H]1NC(=O)[C@H]([C@@H](C)O)NC(=O)[C@@H]2CCCCNC(=O)CC[C@@H]3NC(=O)[C@H](CCNC(=O)[C@H](Cc4cccnc4)NC(=O)[C@H](CCN)NC3=O)NC(=O)[C@H](Cc3ccc4ccccc4c3)NC(=O)[C@H](Cc3ccc(OCCN)cc3)NC(=O)[C@H](CCC(=O)N2)NC(=O)[C@H](CCC(N)=O)NC(=O)[C@H](Cc2c[nH]c3ccccc23)NC1=O` [Compound 76, K(1c)(6c)^†TVWQE(6c)[Y(2-aminoethoxy)][2-Nal][Dab](7c)E(1c)[Dab][3-(3-Pyridyl)-Ala](7c)^‡] (KTVWQE[AEF][2Nal][Dab]E[Dab][3Pal]; lactam 1-10, 9-C, N-6), half-maximal inhibition (IC50) required 3.7 nM and the Emax amounted to 92%. For `CC(C)[C@@H]1NC(=O)[C@H]([C@@H](C)O)NC(=O)[C@@H]2CCCCNC(=O)CC[C@@H]3NC(=O)[C@H](CCCCNC(=O)[C@H](Cc4cccnc4)NC(=O)[C@H](CCN)NC3=O)NC(=O)[C@H](Cc3ccc4ccccc4c3)NC(=O)[C@H](Cc3ccc(OCCN)cc3)NC(=O)[C@H](CCC(=O)N2)NC(=O)[C@H](CCC(N)=O)NC(=O)[C@H](Cc2c[nH]c3ccccc23)NC1=O` [Compound 77, K(1c)(6c)^†TVWQE(6c)[Y(2-aminoethoxy)][2-Nal]K(7c)E(1c)[Dab][3-(3-Pyridyl)-Ala](7c)^‡], in that order: 9.9 nM and 97%.

Regarding `CC[C@H](C)[C@@H]1NC(=O)[C@@H]2CCCCNC(=O)CC[C@@H](C(=O)N[C@@H](CCN)C(=O)N[C@@H](Cc3cncnc3)C(=O)NC)NC(=O)[C@](C)(CC(C)C)NC(=O)[C@H](Cc3ccc4ccccc4c3)NC(=O)[C@H](Cc3ccc(OCCN)cc3)NC(=O)[C@H](CCC(=O)N2)NC(=O)[C@H](CCC(N)=O)NC(=O)[C@H](Cc2c[nH]c3ccccc23)NC(=O)[C@H](C(C)C)NC1=O` [Compound 78, K(1c)(6c)^†IVWQE(6c)[Y(2-aminoethoxy)][2-Nal][2-Me-Leu]E(1c)[Dab][3-(3,5-Pyrimidyl)-Ala]-[NHMe]], the “% displacement (hIL-23R NIuc)” value turned out to be 100% and the IC50 was 3 nM. Take `CNC(=O)[C@H](Cc1cccnc1)NC(=O)[C@H](CCN)NC(=O)[C@@H]1CCC(=O)NCCCC[C@@H]2NC(=O)CC[C@H](NC(=O)[C@H](CCC(N)=O)NC(=O)[C@H](Cc3cn(C)c4ccccc34)NC(=O)CCNC2=O)C(=O)N[C@@H](Cc2ccc(OCCN)cc2)C(=O)N[C@@H](Cc2ccc3ccccc3c2)C(=O)N[C@@](C)(CC(C)C)C(=O)N1` [Compound 79, K(1c)(6c)^†[3-Aminopropanoyl][1-Me-Trp]QE(6c)[Y(2-aminoethoxy)][2-Nal][2-Me-Leu]E(1c)[Dab][3-(3-Pyridyl)-Ala]-[NHMe]] (K[βAla][Trp(1-Me)]QE[AEF][2Nal][αMeL]E[Dab][3Pal]-NHMe; lactam 1-9, N-5): the IC50 came to 0.02 nM and the Emax amounted to 100%. Regarding `CNC(=O)[C@H](Cc1cccnc1)NC(=O)[C@H](CCN)NC(=O)[C@@H]1CCC(=O)NCCCC[C@@H]2NC(=O)CC[C@H](NC(=O)[C@H](CCC(N)=O)NC(=O)[C@H](Cc3c[nH]c4ccccc34)NC(=O)CCNC2=O)C(=O)N[C@@H](CC2CC2)C(=O)N[C@@H](Cc2ccc3ccccc3c2)C(=O)N[C@@](C)(CC(C)C)C(=O)N1` [Compound 82, K(1c)(6c)^†[3-Aminopropanoyl]WQE(6c)[Cyclopropyl-Ala][2-Nal][2-Me-Leu]E(1c)[Dab][3-(3-Pyridyl)-Ala]-[NHMe]], the IC50 worked out at 3.7 nM and the Emax was found to be 101%.

As for `CNC(=O)[C@H](Cc1cccnc1)NC(=O)[C@H](Cc1ccccn1)NC(=O)[C@@H]1CCC(=O)NCCCC[C@@H]2NC(=O)CC[C@H](NC(=O)[C@H](CCC(N)=O)NC(=O)[C@H](Cc3c[nH]c4ccccc34)NC(=O)CCNC2=O)C(=O)N[C@@H](Cc2ccc(OCCN)cc2)C(=O)N[C@@H](Cc2ccc3ccccc3c2)C(=O)N[C@@](C)(CC(C)C)C(=O)N1` [Compound 88, K(1c)(6c)^†[3-Aminopropanoyl]WQE(6c)[Y(2-aminoethoxy)][2-Nal][2-Me-Leu]E(1 c)[3-(2-Pyridyl)-Ala][3-(3-Pyridyl)-Ala]-[NHMe]], the IC50 amounted to 0.052 nM and the Emax is 100%. In the same order, the values of `CNC(=O)[C@H](Cc1cccnc1)NC(=O)[C@H](Cc1ccncc1)NC(=O)[C@@H]1CCC(=O)NCCCC[C@@H]2NC(=O)CC[C@H](NC(=O)[C@H](CCC(N)=O)NC(=O)[C@H](Cc3c[nH]c4ccccc34)NC(=O)CCNC2=O)C(=O)N[C@@H](Cc2ccc(OCCN)cc2)C(=O)N[C@@H](Cc2ccc3ccccc3c2)C(=O)N[C@@](C)(CC(C)C)C(=O)N1` [Compound 89, K(1c)(6c)^†[3-Aminopropanoyl]WQE(6c)[Y(2-aminoethoxy)][2-Nal][2-Me-Leu]E(1 c)[3-(4-Pyridyl)-Ala][3-(3-Pyridyl)-Ala]-[NHMe]] are 0.04 nM and 100%.

As to `CNC(=O)[C@H](Cc1cccnc1)NC(=O)[C@H](CCN)NC(=O)[C@@H]1CCC(=O)NCCC[C@@H]2NC(=O)CC[C@H](NC(=O)[C@H](CCC(N)=O)NC(=O)[C@H](Cc3c[nH]c4ccccc34)NC(=O)CNC2=O)C(=O)N[C@@H](Cc2ccc(OCCN)cc2)C(=O)N[C@@H](Cc2ccc3ccccc3c2)C(=O)N[C@@](C)(CC(C)C)C(=O)N1` [Compound 90, [Orn](1c)(6c)^†GWQE(6c)[Y(2-aminoethoxy)][2-Nal][2-Me-Leu]E(1c)[Dab][3-(3-Pyridyl)-Ala]-[NHMe]], the midpoint of inhibition, the IC50, lay at 6.4 nM and the Emax is 101%. Take `CNC(=O)[C@H](Cc1cccnc1)NC(=O)[C@H](CCN)NC(=O)[C@@H]1CCC(=O)NCC[C@@H]2NC(=O)CC[C@H](NC(=O)[C@H](CCC(N)=O)NC(=O)[C@H](Cc3c[nH]c4ccccc34)NC(=O)CNC2=O)C(=O)N[C@@H](Cc2ccc(OCCN)cc2)C(=O)N[C@@H](Cc2ccc3ccccc3c2)C(=O)N[C@@](C)(CC(C)C)C(=O)N1` [Compound 92, [Dab](1c)(6c)^†GWQE(6c)[Y(2-aminoethoxy)][2-Nal][2-Me-Leu]E(1c)[Dab][3-(3-Pyridyl)-Ala]-[NHMe]]: the IC50 was 12 nM.

In the case of `CNC(=O)[C@H](Cc1cccnc1)NC(=O)[C@H](CCN)NC(=O)[C@@H]1CCC(=O)NCCCCC[C@@H]2NC(=O)CC[C@H](NC(=O)[C@H](CCC(N)=O)NC(=O)[C@H](Cc3c[nH]c4ccccc34)NC2=O)C(=O)N[C@@H](Cc2ccc(OCCN)cc2)C(=O)N[C@@H](Cc2ccc3ccccc3c2)C(=O)N[C@@](C)(CC(C)C)C(=O)N1` [Compound 93, [hLys](1c)(6c)^†WQE(6c)[Y(2-aminoethoxy)][2-Nal][2-Me-Leu]E(1c)[Dab][3-(3-Pyridyl)-Ala]-[NHMe]], the “% displacement (hIL-23R NIuc)” value was determined as 99% and it took 3 nM to reach half-maximal inhibition (IC50). With `CNC(=O)[C@H](Cc1cccnc1)NC(=O)[C@H](CCN)NC(=O)[C@@H]1CCC(=O)NCC[C@@H]2NC(=O)CC[C@H](NC(=O)[C@H](CCC(N)=O)NC(=O)[C@H](Cc3c[nH]c4ccccc34)NC2=O)C(=O)N[C@@H](Cc2ccc(OCCN)cc2)C(=O)N[C@@H](Cc2ccc3ccccc3c2)C(=O)N[C@@](C)(CC(C)C)C(=O)N1` [Compound 94, [Dab](1c)(6c)^†WQE(6c)[Y(2-aminoethoxy)][2-Nal][2-Me-Leu]E(1c)[Dab][3-(3-Pyridyl)-Ala]-[NHMe]], half-maximal inhibition (IC50) was put at 3.7 nM and the Emax turned out to be 99%. As for `CNC(=O)[C@H](Cc1cccnc1)NC(=O)[C@H](CCN)NC(=O)[C@@H]1CCC(=O)NC[C@@H]2NC(=O)CC[C@H](NC(=O)[C@H](CCC(N)=O)NC(=O)[C@H](Cc3c[nH]c4ccccc34)NC2=O)C(=O)N[C@@H](Cc2ccc(OCCN)cc2)C(=O)N[C@@H](Cc2ccc3ccccc3c2)C(=O)N[C@@](C)(CC(C)C)C(=O)N1` [Compound 95, [Dpr](1c)(6c)^†WQE(6c)[Y(2-aminoethoxy)][2-Nal][2-Me-Leu]E(1c)[Dab][3-(3-Pyridyl)-Ala]-[NHMe]], the IC50 stood at 17 nM and the Emax is 98%.

On to `CNC(=O)[C@H](Cc1cccnc1)NC(=O)[C@H](CCN)NC(=O)[C@@H]1CCC(=O)NCCCC[C@@H]2NC(=O)CC[C@H](NC(=O)[C@H](CCC(N)=O)NC(=O)[C@H](Cc3c[nH]c4ccccc34)NC(=O)C[C@H]([C@@H](C)O)NC2=O)C(=O)N[C@@H](Cc2ccc(OCCN)cc2)C(=O)N[C@@H](Cc2ccc3ccccc3c2)C(=O)N[C@@](C)(CC(C)C)C(=O)N1` [Compound 97, K(1c)(6c)^†[beta-hThr]WQE(6c)[Y(2-aminoethoxy)][2-Nal][2-Me-Leu]E(1c)[Dab][3-(3-Pyridyl)-Ala]-[NHMe]], for which the “% displacement (hIL-23R NIuc)” value is 101% and the IC50 stood at 0.061 nM. With `CNC(=O)[C@H](Cc1cccnc1)NC(=O)[C@H](CCN)NC(=O)[C@@H]1CCC(=O)NCCCC[C@H]2CC(=O)N[C@@H](Cc3c[nH]c4ccccc34)CC(=O)N[C@@H](CCC(N)=O)C(=O)N[C@@H](CCC(=O)N2)C(=O)N[C@@H](Cc2ccc(OCCN)cc2)C(=O)N[C@@H](Cc2ccc3ccccc3c2)C(=O)N[C@@](C)(CC(C)C)C(=O)N1` [Compound 100, [beta-hLys](1c)(6c)^†[beta-hTrp]QE(6c)[Y(2-aminoethoxy)][2-Nal][2-Me-Leu]E(1c)[Dab][3-(3-Pyridyl)-Ala]-[NHMe]] ([β3hK][β3hW]QE[AEF][2Nal][αMeL]E[Dab][3Pal]-NHMe; lactam 1-8, N-4), half-maximal inhibition (IC50) was put at 150 nM and the Emax is 97%.
